For one compound, EC50 results are on record in article PMC11335300, “The novel function of an orphan pheromone receptor reveals the sensory specializations of two potential distinct types of sex pheromones in noctuid moth” (Cellular and Molecular Life Sciences: CMLS, 2024).

Molecules are shown by their SMILES.

For this test, the target named is T1, HarmOR11/Orco (Helicoverpa armigera, UniProt A0A7D5JUD6).
T1 construct: full-length HarmOR11 and HarmOrco cloned from antennal cDNA into pT7Ts; cRNAs co-injected in Xenopus laevis oocytes; heteromeric channel, exact stoichiometry unknown (2:2 only modelled); with Odorant receptor coreceptor
T1 sequence (A0A7D5JUD6 1-431): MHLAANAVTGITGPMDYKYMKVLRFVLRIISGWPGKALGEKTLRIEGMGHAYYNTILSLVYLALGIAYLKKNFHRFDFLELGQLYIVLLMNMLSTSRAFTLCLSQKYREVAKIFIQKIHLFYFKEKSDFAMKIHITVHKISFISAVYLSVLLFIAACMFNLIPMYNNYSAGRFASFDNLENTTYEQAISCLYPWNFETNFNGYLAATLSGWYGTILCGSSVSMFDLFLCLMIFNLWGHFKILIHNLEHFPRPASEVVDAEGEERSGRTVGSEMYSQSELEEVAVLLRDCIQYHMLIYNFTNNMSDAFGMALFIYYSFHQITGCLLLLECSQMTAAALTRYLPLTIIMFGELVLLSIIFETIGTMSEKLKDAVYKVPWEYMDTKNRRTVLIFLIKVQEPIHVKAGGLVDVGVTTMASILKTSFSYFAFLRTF
T1 sequence (E5KJL4 1-473 partner): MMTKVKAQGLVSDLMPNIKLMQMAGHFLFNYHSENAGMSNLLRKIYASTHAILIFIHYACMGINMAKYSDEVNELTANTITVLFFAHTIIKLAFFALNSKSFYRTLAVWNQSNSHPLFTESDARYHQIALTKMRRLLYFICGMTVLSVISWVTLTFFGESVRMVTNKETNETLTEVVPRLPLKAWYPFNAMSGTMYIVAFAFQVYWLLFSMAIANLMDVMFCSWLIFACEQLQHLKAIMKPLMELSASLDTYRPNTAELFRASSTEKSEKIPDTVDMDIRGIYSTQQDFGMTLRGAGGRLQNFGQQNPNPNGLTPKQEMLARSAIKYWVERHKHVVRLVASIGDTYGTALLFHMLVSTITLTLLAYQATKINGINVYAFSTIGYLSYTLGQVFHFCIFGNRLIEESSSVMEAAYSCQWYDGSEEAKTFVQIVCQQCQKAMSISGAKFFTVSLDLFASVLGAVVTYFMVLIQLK
Kind of test: two-electrode voltage clamp of Xenopus oocytes co-expressing HarmOR11/Orco. Format: cell-based. The note with it: agonist; holding potential -80 mV; Ringer's buffer pH 7.6; from DMSO stock; unit printed as mol (concentration meant). On the technique in general: Two-electrode voltage clamp is typically applied to oocytes expressing channels or transporters.

As to `CC/C=C\C/C=C\C/C=C\CCCCCCCCCCC` [3Z,6Z,9Z-21:H, 3Z,6Z,9Z-heneicosatriene], the EC50 was 1.637e-05 mol.
